Measurements published in patent US20170052170A1, “NOVEL CELL LINES AND METHODS” (priority 2009, published 2017).

What was measured:
Assay type in all cases: cell-based
[1] = target: T1, human odorant receptor OR3A1 (Homo sapiens, UniProt P47881, R125Q); assay: Calcium mobilization (Fluo-4) assay, HEK293T cells expressing OR3A1 and human Gα15; settings: final concentration 4.5 mM, vs DMSO vehicle, FIG. 29A
T1 construct: expressed in transfected cells; host or cells: 293T (HEK293T)
T1 sequence (P47881 1-315 R125Q): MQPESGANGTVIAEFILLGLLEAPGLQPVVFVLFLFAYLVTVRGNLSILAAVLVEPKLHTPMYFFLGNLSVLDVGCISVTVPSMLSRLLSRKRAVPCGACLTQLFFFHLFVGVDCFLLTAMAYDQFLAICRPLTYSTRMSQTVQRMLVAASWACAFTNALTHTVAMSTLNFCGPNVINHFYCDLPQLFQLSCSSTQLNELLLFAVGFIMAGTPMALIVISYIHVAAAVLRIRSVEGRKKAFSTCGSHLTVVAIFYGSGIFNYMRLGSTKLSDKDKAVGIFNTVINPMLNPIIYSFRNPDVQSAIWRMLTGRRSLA
Protocol: (§1) Populations of cells were tested using functional criteria. Calcium mobilization dye Fluo-4 (Invitrogen) was used according to manufacturer's instructions. HEK293T cell lines stably expressing h-OR were maintained under standard cell culture conditions in DMEM medium supplemented with 10% fetal bovine serum and glutamine. On the day before assay, the cells were harvested from stock plates and plated into black clear-bottom 384 well assay plates. The assay plates were maintained in a 37° C. cell culture incubator under 5% CO2 for 22-48 hours. […] The assay plates were then loaded on a fluorescent plate reader (Hamamatsu FDSS) and agonist (4.5 mM Helional for OR3A1 and 0.3 mM Bourgeonal for OR1D2-FIGS. 29A, 29B) dissolved in the above buffer (130 mM NaCl, 5 mM KCl, 2 mM CaCl2, 1.2 mM MgCl2, 10 mM HEPES, 10 mM glucose, pH 7.0) was added. Cells were tested at multiple different densities in 384-well plates and responses were analyzed. […]
(§2) In order to identify and measure the ligand-induced responsiveness of odorant receptor-expressing HEK293T cells, receptor activation are monitored by measuring receptor-triggered alterations in intracellular calcium levels. […] Software (Hamamatsu FDSS) analysis of images reports the change in relative fluorescence for each well in the cell plate.

[2] = target: T1, human odorant receptor OR3A1; assay: calcium flux assay in cell line expressing human odorant receptor OR3A1; settings: final concentration 4.5 mM
Protocol: FIG. 29 (A-B) depicts representative traces of the functional cell-based response of cells expressing a human odorant receptor to Helional and to Bourgeonal compared to background. FIG. 29A depicts representative traces of the functional cell-based response of a cell line described herein expressing human odorant receptor OR3A1 to Helional (to a final concentration of 4.5 mM) compared to DMSO vehicle background signal as control. Test (black) and control (gray) traces are overlaid. […] The cell-based assay was designed to report calcium flux using a fluorescent calcium signaling dye. Fluorescent assay response is plotted along the Y-axis and time is indicated along the X-axis. Arrows indicate the timepoint at which Helional or DMSO was added.

[3] = target: T2, human odorant receptor OR1D2 (Homo sapiens, UniProt P34982); assay: Calcium mobilization (Fluo-4) assay, HEK293T cells expressing OR1D2 and human Gα15; settings: final concentration 0.3 mM, vs DMSO vehicle, FIG. 29B
T2 construct: expressed in transfected cells; host or cells: 293T (HEK293T)
T2 sequence (P34982 1-312): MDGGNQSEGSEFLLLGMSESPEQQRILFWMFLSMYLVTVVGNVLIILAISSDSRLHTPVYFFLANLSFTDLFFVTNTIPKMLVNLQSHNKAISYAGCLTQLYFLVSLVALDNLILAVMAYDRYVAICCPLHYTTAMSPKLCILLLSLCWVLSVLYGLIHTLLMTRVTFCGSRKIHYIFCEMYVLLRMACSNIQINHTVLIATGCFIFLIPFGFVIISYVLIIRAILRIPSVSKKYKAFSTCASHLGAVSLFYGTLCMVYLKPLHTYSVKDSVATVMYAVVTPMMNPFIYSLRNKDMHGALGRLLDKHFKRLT
Protocol: as §1, §2

[4] = target: T2, human odorant receptor OR1D2; assay: calcium flux assay in cell line expressing human odorant receptor OR1D2; settings: final concentration 0.3 mM
Protocol: FIG. 29B depicts representative traces of the functional cell-based response of a cell line described herein expressing human odorant receptor OR1D2 to Bourgeonal (to a final concentration of 0.3 mM) compared to DMSO vehicle background signal as control. Test (black) and control (gray) traces are overlaid. […] The cell-based assay was designed to report calcium flux using a fluorescent calcium signaling dye. Fluorescent assay response is plotted along the Y-axis and time is indicated along the X-axis. Arrows indicate the timepoint at which Bourgeonal or DMSO was added.

Structure (SMILES) | functional cell-based calcium flux response [1] | functional cell-based (calcium flux) response compared to DMSO vehicle background [2] | functional cell-based calcium flux response [3] | functional cell-based (calcium flux) response compared to DMSO vehicle background [4]
CC(C=O)Cc1ccc2c(c1)OCO2 (stereo not shown) [Helional] | response to Helional over background | response to Helional over background | – | –
CC(C)(C)c1ccc(CCC=O)cc1 [Bourgeonal] | – | – | response to Bourgeonal over background | response to Bourgeonal over background
